According to ChEMBL document CHEMBL2163213, “Synthesis and bioevaluation of novel 3,4,5-trimethoxybenzylbenzimidazole derivatives that inhibit Helicobacter pylori-induced pathogenesis in human gastric epithelial cells” (Eur J Med Chem, 2012):
Converted amounts (≈) assume the structure as drawn. The source made the active and inactive calls. No cut-off for these calls is given here.

Columns and labels:
[1] = Antimicrobial activity against Helicobacter pylori 26695 ATCC 700392 at 50 ug/ml by disk agar diffusion method; type: functional; conditions: read-out: DIZ
[2] = Antimicrobial activity against Helicobacter pylori 26695 ATCC 700392 at 100 ug/ml by disk agar diffusion method; type: functional; conditions: read-out: DIZ
[3] = test system: AGS; test: Cytotoxicity against human AGS cells assessed as cell viability by MTT assay; type: cell-based
[4] = Antimicrobial activity against Helicobacter pylori 26695 ATCC 700392 at pH 8 by microdilution method; type: functional
[5] = test system: Helicobacter pylori; test: Antimicrobial activity against metronidazole and clarithromycin-resistant Helicobacter pylori v633 at pH 5 by microdilution method; type: functional
[6] = Antimicrobial activity against Helicobacter pylori 26695 ATCC 700392 at pH 5 by microdilution method; type: functional
[7] = test system: Helicobacter pylori; test: Antimicrobial activity against metronidazole and clarithromycin-resistant Helicobacter pylori v633 at pH 8 by microdilution method; type: functional
[8] = Antimicrobial activity against Helicobacter pylori 26695 ATCC 700392 at 800 ug/ml by disk agar diffusion method; type: functional; conditions: read-out: DIZ
[9] = test system: Helicobacter pylori; test: Inhibition of Helicobacter pylori adhesion to human AGS cells at 20 ug/ml after 6 hrs by gentamicin assay relative to control; type: functional
[10] = test system: Helicobacter pylori; test: Antimicrobial activity against metronidazole and clarithromycin-resistant Helicobacter pylori v633 at pH 7 by microdilution method; type: functional
[11] = test system: Helicobacter pylori; test: Antimicrobial activity against metronidazole and clarithromycin-resistant Helicobacter pylori v1254 at pH 5 by microdilution method; type: functional
[12] = test system: Helicobacter pylori; test: Inhibition of Helicobacter pylori invasion to human AGS cells at 20 ug/ml after 6 hrs by gentamicin assay relative to control; type: functional
[13] = test system: Helicobacter pylori; test: Antimicrobial activity against metronidazole and clarithromycin-resistant Helicobacter pylori v1254 at pH 7 by microdilution method; type: functional
[14] = test system: Helicobacter pylori; test: Antimicrobial activity against metronidazole and clarithromycin-resistant Helicobacter pylori v1254 at pH 8 by microdilution method; type: functional
[15] = Antimicrobial activity against Helicobacter pylori 26695 ATCC 700392 at pH 7 by microdilution method; type: functional
[16] = test system: Helicobacter pylori; test: Antimicrobial activity against Helicobacter pylori infected in human AGS cells assessed as reduction of tyrosine phosphorylated CagA level translocation after 6 hrs by immunoblot analysis; type: functional, organism-based
[17] = test system: Helicobacter pylori; test: Inhibition of Helicobacter pylori 26695 ATCC 700392 CagA-induced pathogenesis in human AGS cells assessed as reduction of hummingbird phenotype of host cells after 6 hrs; type: functional, cell-based; conditions: ATCC 700392 26695
[18] = test system: AGS; test: Inhibition of NFkappaB activation expressed in human AGS cells infected with Helicobacter pylori assessed as inhibition of IL-8 production at 20 ug/ml relative to control; type: cell-based
[19] = test system: AGS; test: Inhibition of NFkappaB activation expressed in human AGS cells infected with Helicobacter pylori at 10 ug/ml relative to control; type: cell-based
[20] = test system: Helicobacter pylori; test: Inhibition of Helicobacter pylori adhesion to human AGS cells at 5 ug/ml after 6 hrs by gentamicin assay relative to control; type: functional
[21] = test system: Helicobacter pylori; test: Inhibition of Helicobacter pylori invasion to human AGS cells at 10 ug/ml after 6 hrs by gentamicin assay relative to control; type: functional
[22] = test system: AGS; test: Inhibition of NFkappaB activation expressed in human AGS cells infected with Helicobacter pylori at 20 ug/ml relative to control; type: cell-based
[23] = test system: Helicobacter pylori; test: Antimicrobial activity against Helicobacter pylori infected in human AGS cells assessed as reduction of tyrosine phosphorylated CagA level translocation at 20 ug/ml after 6 hrs by immunoblot analysis; type: functional
[24] = test system: Helicobacter pylori; test: Antimicrobial activity against Helicobacter pylori infected in human AGS cells assessed as inhibition of CagA gene translocation at 20 ug/ml after 6 hrs by immunoblot analysis; type: functional
[25] = test system: Helicobacter pylori; test: Inhibition of Helicobacter pylori 26695 ATCC 700392 CagA-induced pathogenesis in human AGS cells assessed as reduction of hummingbird phenotype of host cells at 20 ug/ml after 6 hrs; type: functional; conditions: ATCC 700392 26695, AGS
[26] = test system: Helicobacter pylori; test: Inhibition of Helicobacter pylori adhesion to human AGS cells at 10 ug/ml after 6 hrs by gentamicin assay relative to control; type: functional
[27] = test system: Helicobacter pylori; test: Inhibition of Helicobacter pylori invasion to human AGS cells at 5 ug/ml after 6 hrs by gentamicin assay relative to control; type: functional
[28] = test system: AGS; test: Inhibition of Helicobacter pylori 26695 ATCC 700392 cytotoxin A-induced vacuolation in human AGS cells after 24 hrs by neutral red uptake assay; type: functional, cell-based
[29] = test system: Helicobacter pylori; test: Antimicrobial activity against Helicobacter pylori infected in human AGS cells assessed as inhibition of CagA gene translocation after 6 hrs by immunoblot analysis; type: functional, organism-based

CC1(C)S[C@@H]2[C@H](NC(=O)[C@H](N)c3ccc(O)cc3)C(=O)N2[C@H]1C(=O)O [AMOXICILLIN]
zone of inhibition at 50 µg/mL [1]: 14 mm

COc1cc(Cn2c(-c3ccccc3)nc3cc(Cl)ccc32)cc(OC)c1OC
zone of inhibition at 100 µg/mL [2]: 11 mm

COc1cc(Cn2c(-c3ccc(Cl)cc3Cl)nc3cc(C)ccc32)cc(OC)c1OC
zone of inhibition at 100 µg/mL [2]: 11 mm

COc1cc(Cn2c(-c3ccc(F)cc3)nc3cc(C)ccc32)cc(OC)c1OC
zone of inhibition at 100 µg/mL [2]: 17 mm

COc1cc(Cn2c(-c3ccc4ccccc4c3)nc3cc(C)ccc32)cc(OC)c1OC
zone of inhibition at 100 µg/mL [2]: 0 mm

COc1ccc2nc(-c3ccccc3)n(Cc3cc(OC)c(OC)c(OC)c3)c2c1
zone of inhibition at 100 µg/mL [2]: 0 mm

COc1ccc(-c2nc3cc(Cl)ccc3n2Cc2cc(OC)c(OC)c(OC)c2)cc1
zone of inhibition at 100 µg/mL [2]: 11 mm

COc1cc(Cn2c(-c3ccccc3C)nc3cc(C)ccc32)cc(OC)c1OC
zone of inhibition at 100 µg/mL [2]: 14 mm

COc1ccccc1-c1nc2cc(C)ccc2n1Cc1cc(OC)c(OC)c(OC)c1
Activity [3]: Toxic
zone of inhibition at 100 µg/mL [2]: 21 mm

Cc1ncc([N+](=O)[O-])n1CCO [METRONIDAZOLE]
MBC [4]: 12.5 µg/mL (≈ 73 µM)
MBC [5]: 50 µg/mL (≈ 292 µM)
MBC [6]: 6.25 µg/mL (≈ 36.5 µM)
MBC [7]: 50 µg/mL (≈ 292 µM)
zone of inhibition at 800 µg/mL [8]: 7 mm
inhibition at 20 µg/mL [9]: 20%
MBC [10]: 50 µg/mL (≈ 292 µM)
MBC [11]: 100 µg/mL (≈ 584 µM)
inhibition at 20 µg/mL [12]: 20%
MBC [13]: 100 µg/mL (≈ 584 µM)
MBC [14]: 100 µg/mL (≈ 584 µM)
MBC [15]: 12.5 µg/mL (≈ 73 µM)

COc1cc(Cn2c(-c3cccc(C)c3)nc3cc(C)ccc32)cc(OC)c1OC
zone of inhibition at 100 µg/mL [2]: 19 mm

COc1cc(Cn2c(-c3ccccc3)nc3ccc(C)cc32)cc(OC)c1OC
Activity [3]: Toxic
zone of inhibition at 100 µg/mL [2]: 21 mm

COc1cc(Cn2c(-c3ccccc3Cl)nc3cc(C)ccc32)cc(OC)c1OC
Activity [3]: Toxic
zone of inhibition at 100 µg/mL [2]: 21 mm

COc1cc(Cn2c(-c3cc(F)ccc3F)nc3cc(C)ccc32)cc(OC)c1OC
zone of inhibition at 100 µg/mL [2]: 11 mm

COc1cc(Cn2c(-c3cccc(Cl)c3Cl)nc3cc(C)ccc32)cc(OC)c1OC
zone of inhibition at 100 µg/mL [2]: 13 mm

COc1cc(Cn2c(-c3cccc4ccccc34)nc3cc(C)ccc32)cc(OC)c1OC
zone of inhibition at 100 µg/mL [2]: 12 mm

COc1cc(Cn2c(-c3ccccc3F)nc3cc(C)ccc32)cc(OC)c1OC
inhibition [16]: Dose-dependent effect
MBC [4]: 25 µg/mL (≈ 61.5 µM)
MBC [5]: 12.5 µg/mL (≈ 30.8 µM)
Activity [3]: Non-toxic
zone of inhibition at 100 µg/mL [2]: 24 mm
inhibition [17]: Dose-dependent effect
MBC [6]: 25 µg/mL (≈ 61.5 µM)
MBC [7]: 12.5 µg/mL (≈ 30.8 µM)
inhibition [18]: 85%
inhibition [19]: 14%
inhibition at 5 µg/mL [20]: 6%
inhibition at 10 µg/mL [21]: 28%
inhibition [22]: 42%
inhibition at 20 µg/mL [23]: 55%
inhibition at 20 µg/mL [24]: 55%
inhibition at 20 µg/mL [9]: 58%
MBC [10]: 12.5 µg/mL (≈ 30.8 µM)
MBC [11]: 12.5 µg/mL (≈ 30.8 µM)
inhibition at 20 µg/mL [25]: 98%
inhibition at 10 µg/mL [26]: 31%
inhibition at 5 µg/mL [27]: 7%
inhibition at 20 µg/mL [12]: 52%
inhibition [28]: Dose-dependent effect
MBC [13]: 12.5 µg/mL (≈ 30.8 µM)
inhibition [29]: Dose-dependent effect
MBC [14]: 12.5 µg/mL (≈ 30.8 µM)
MBC [15]: 25 µg/mL (≈ 61.5 µM)

COc1cc(Cn2c(-c3ccc(C#N)cc3)nc3cc(C)ccc32)cc(OC)c1OC
zone of inhibition at 100 µg/mL [2]: 12 mm

c1ccc2[nH]cnc2c1 [BENZIMIDAZOLE]
MBC [4]: > 800 µg/mL
MBC [5]: > 800 µg/mL
zone of inhibition at 100 µg/mL [2]: 0 mm
MBC [6]: > 800 µg/mL
MBC [7]: 400 µg/mL (≈ 3390 µM)
inhibition [22]: Active
MBC [10]: 400 µg/mL (≈ 3390 µM)
MBC [11]: > 800 µg/mL
inhibition [28]: Active
MBC [13]: 400 µg/mL (≈ 3390 µM)
MBC [14]: 400 µg/mL (≈ 3390 µM)
MBC [15]: 400 µg/mL (≈ 3390 µM)

COc1ccc(-c2nc3ccc(Cl)cc3n2Cc2cc(OC)c(OC)c(OC)c2)cc1
zone of inhibition at 100 µg/mL [2]: 12 mm

COc1cc(Cn2c(-c3c(F)cccc3F)nc3cc(C)ccc32)cc(OC)c1OC
Activity [3]: Toxic
zone of inhibition at 100 µg/mL [2]: 24 mm

CC[C@H]1OC(=O)[C@H](C)[C@@H](O[C@H]2C[C@@](C)(OC)[C@@H](O)[C@H](C)O2)[C@H](C)[C@@H](O[C@@H]2O[C@H](C)C[C@H](N(C)C)[C@H]2O)[C@](C)(OC)C[C@@H](C)C(=O)[C@H](C)[C@@H](O)[C@]1(C)O [CLARITHROMYCIN]
zone of inhibition at 50 µg/mL [1]: 21 mm

COc1cc(Cn2c(-c3ccccc3)nc3ccc(Cl)cc32)cc(OC)c1OC
zone of inhibition at 100 µg/mL [2]: 14 mm

COc1ccc(-c2nc3cc(C)ccc3n2Cc2cc(OC)c(OC)c(OC)c2)cc1
Activity [3]: Toxic
zone of inhibition at 100 µg/mL [2]: 22 mm

COc1cc(Cn2c(-c3ccccc3)nc3cc(F)ccc32)cc(OC)c1OC
zone of inhibition at 100 µg/mL [2]: 17 mm

COc1cc(Cn2c(-c3cccc(F)c3)nc3cc(C)ccc32)cc(OC)c1OC
zone of inhibition at 100 µg/mL [2]: 0 mm

COc1cc(Cn2c(-c3ccccc3)nc3cc(C)ccc32)cc(OC)c1OC
Activity [3]: Toxic
zone of inhibition at 100 µg/mL [2]: 22 mm

COc1cccc(-c2nc3cc(C)ccc3n2Cc2cc(OC)c(OC)c(OC)c2)c1
zone of inhibition at 100 µg/mL [2]: 0 mm

COc1cc(Cn2c(-c3ccc(Cl)c(Cl)c3)nc3cc(C)ccc32)cc(OC)c1OC
zone of inhibition at 100 µg/mL [2]: 9 mm

COc1ccc(-c2nc3ccc(C)cc3n2Cc2cc(OC)c(OC)c(OC)c2)cc1
zone of inhibition at 100 µg/mL [2]: 15 mm

COc1cc(Cn2c(-c3ccccc3)nc3cc(C)c(C)cc32)cc(OC)c1OC
zone of inhibition at 100 µg/mL [2]: 16 mm
